This passage reports inhibition in vivo, Activity and UI results from ChEMBL document CHEMBL3044714, “Studies on fused heterocyclic 3,6-disubstituted-1,2,4-triazolo-1,3,4-thiadiazoles: synthesis and biological evaluation” (Med Chem Res, 2011).

Series [1] relates to Rattus norvegicus. As to the kind of experiment: Anti-inflammatory activity in Rattus norvegicus Wistar (rat) assessed as inhibition of carrageenan-induced paw edema at 20 mg/kg, po administered 30 min prior to carrageenan-induced measured after 2 hr relative to control. It counts as functional.
The subject of series [2] is Rattus norvegicus. As to the kind of experiment: Anti-inflammatory activity in Rattus norvegicus Wistar (rat) assessed as inhibition of carrageenan-induced paw edema at 20 mg/kg, po administered 30 min prior to carrageenan-induced measured after 3 hr relative to control. It counts as functional. A general note: The carrageenan paw model is a standard test of acute inflammation.

Series [3] concerns Rattus norvegicus. As to the kind of experiment: Induction of lipid peroxidation in fasted Rattus norvegicus Wistar (rat) assessed as malondialdehyde level per 100 mg gastric mucosal tissue at 60 mg/kg, po measured after 17 hr by thiobarbuteric acid method. It counts as organism-based, Gastric mucosa. On the set-up: dose 60 mg/kg, route oral. The note with it: in vivo.
In series [4] the test system is Rattus norvegicus. As to the kind of experiment: Ulcerogenic activity in fasted Rattus norvegicus Wistar (rat) assessed as ulcer index at 60 mg/kg, po measured after 17 hr. The note with it: in vivo. On the set-up: dose 60 mg/kg, route oral. It counts as toxicity, organism-based.
For a further series, the system named is Mus musculus. As to the kind of experiment: Analgesic activity in Mus musculus albino (mouse) assessed as protection against acetic acid-induced writhing at 25 mg/kg, ip administered 20 min prior to acetic acid-challenge measured for 20 min relative to control. It counts as functional. The settings on record: route intraperitoneal. In general terms: An intraperitoneal irritant provokes the stretching counted in writhing tests.

Consider `c1ccc(Cc2nnc3sc(Cc4cc5ccccc5[nH]4)nn23)cc1`, for which the figures for the inhibition in vivo at 20 mg/kg in the series on Rattus norvegicus [1] and in the series on Rattus norvegicus [2] were 36.7% and 41%, respectively.
In the case of `Oc1ccccc1-c1nnc2sc(Cc3cccc4ccccc34)nn12`, the inhibition in vivo at 20 mg/kg with Rattus norvegicus [1] amounted to 28%; in the series with Rattus norvegicus [2] it was 35%.
`COc1ccc2c(c1)c(CC(=O)O)c(C)n2C(=O)c1ccc(Cl)cc1` [INDOMETHACIN]: the Activity in the series on Rattus norvegicus [3] is 7.95 nmol. Further, the inhibition in vivo at 20 mg/kg was 50.7% with Rattus norvegicus [1] and 66.9% in the series with Rattus norvegicus [2]. Besides, the UI with Rattus norvegicus [4] came to 2.25.
With `O=C(c1ccccc1)c1ccccc1-c1nn2c(COc3ccccc3)nnc2s1`, the Activity in the series on Rattus norvegicus [3] was determined as 4.42 nmol; in the series on Mus musculus, 43.48%. The inhibition in vivo at 20 mg/kg in the series with Rattus norvegicus [1] is 54.8%; in the series with Rattus norvegicus [2], 63.3%. Besides, in the series on Rattus norvegicus [4], the UI turned out to be 1.25.
For `O=C(CCc1nn2c(COc3ccccc3)nnc2s1)c1ccccc1`, in that order: 3.95 nmol, 65.58%, 56.5%, 70.9% and 1.16.
Regarding `c1ccc(OCc2nnc3sc(Cc4cccc5ccccc45)nn23)cc1`, the inhibition in vivo at 20 mg/kg in the series on Rattus norvegicus [1] was found to be 18.5%; in the series with Rattus norvegicus [2], 24.6%.
For `O=C(NCc1nn2c(Cc3ccccc3)nnc2s1)c1ccccc1`, the results for the inhibition in vivo at 20 mg/kg in the series on Rattus norvegicus [1] and with Rattus norvegicus [2] were 21.2% and 28%, respectively.
For `O=C(NCc1nn2c(COc3ccccc3)nnc2s1)c1ccccc1`, in that order: 35.9% and 37.1%.
Consider `c1ccc(OCc2nnc3sc(Cc4cc5ccccc5[nH]4)nn23)cc1`, for which the Activity in the series with Rattus norvegicus [3] worked out at 3.15 nmol; in the series with Mus musculus it was 40.22%. The inhibition in vivo at 20 mg/kg was found to be 32.1% in the series on Rattus norvegicus [1] and 50.5% in the series on Rattus norvegicus [2]. Moreover, the UI in the series on Rattus norvegicus [4] came out at 0.83.
The corresponding values for `c1ccc(Cc2nnc3sc(-c4ccccc4Oc4ccccc4)nn23)cc1` are 3.26 nmol, 30.43%, 41%, 56.3% and 0.91.
For the molecule `CC(=O)Oc1ccccc1C(=O)O` [ASPIRIN], the Activity in the series on Mus musculus was determined as 61.96%.
As for `O=C(NCc1nn2c(-c3ccccc3O)nnc2s1)c1ccccc1`, the inhibition in vivo at 20 mg/kg in the series on Rattus norvegicus [1] is 24.4%; in the series on Rattus norvegicus [2], 32.3%.

The term inhibition in vivo denotes the change of the read-out against control, counted positive when it falls.
